Experiments:
T. rubrum = test: PDT of T. rubrum on human stratum corneum (ex-vivo model), fungicidal effect; format: cell-based, Trichophyton rubrum; details: acidic pH versus pH 7.4
Experimental: A polycarbonate membrane filter, 25 mm in diameter and a pore size of 2 μm (Whatman, Breda, The Netherlands) was placed in the central part of a 3 cm culture dish (Greiner, Alphen aan den Rijn, The Netherlands) filled with 5 ml of Malt Extract Agar (MEA). A circular piece of human stratum corneum (SC) with a diameter of 1 cm was subsequently placed on the membrane filter and both were gently brushed with a paintbrush dipped in 70% ethanol. A microconidia suspension isolated from Trichphyton rubrum (CBS nr. 304.60 obtained from Centraal Bureau voor Schimmelcultures, Utrecht, The Netherlands, and prepared as described by Smijs G. M. T. et al (2004) in “Photodynamic treatment of the dermatophyte Trichophyton Rubrum and its microconidia with porphyrin sensitizers. PhotoChemistry and PhotoBiology, 80, 197 - 202”) was diluted to 1000 CFU/ml and 15 μl was inoculated on the circular sheet of human SC. The dish was placed in an incubator at 28° C. and at 17 hours after spore inoculation photodynamic treatment (PDT) was applied.
At 17 hours after spore inoculation, the membrane filter with SC containing spore inoculates was transported from the MEA dish to a 3 cm culture dish filled with 1035 μl incubation medium. The incubation medium contained 1 ml of distilled water with an adjusted pH (3.5, 4.5, 5.2, or 7.4) and 35 μl of a Sylsens B stock solution (Buchem, Apeldoorn, the Nederland) . To optimize the contact of the inoculates with the incubation medium, the membrane filter with the SC was turned upside down during the incubation period of 2 hours. The incubation was performed under continuous shaking conditions. Shortly before the illumination period the membrane filter containing the SC was turned back (surface SC now faces the lamp). In all cases, the illumination time was 1 hour using a red light irradiance of 30 mW/cm^2. This corresponds to a light dose of 108 J/cm^2. After the illumination the membrane filter with the SC were transported to a fresh MEA dish, placed in a 28° C. incubator and fungal growth was followed for several weeks. Dark controls were included, i.e. the same procedure was carried out except that the inoculated microconidia on human skin were treated with solvent and/or photosensitizer in the dark. In the light controls, the microconidia were treated with solvent (only) in the presence of light. The efficacy of the treatment was expressed as a relative frequency of complete inactivation (killing) of fungal growth detected at day 8 after spore inoculation. This was assessed microscopically with the use of a Zeiss Axiovert 25 (Germany). […] The treatment effect was followed for a period of several months. Every experiment contained 4 to 6 duplicates of all conditions and the experiments were repeated 3 times at least.
PDT of T. rubrum 17 hours after spore inoculation using the ex-vivo model, different concentrations of Sylsens B and a different pH (water medium). The numbers indicate the relative frequency of the fungicidal effect^1. Numbers between brackets give the number of tests performed.
The experiment with Sylsens B was repeated more extensively, for a longer period of time and with more samples. More specifically, the photodynamic efficacy of Sylsens B towards T. rubrum was tested at 17 (FIG. 2a), 48 (FIG. 2b) and 72 hours (FIG. 2c) after spore inoculation on human SC, at the following incubation pH values: Filled diamonds: pH 3.5, filled squares: pH 5.2 and filled triangles: pH 7.4.

[1] = tested on: the fungus cultivated in suspension; test: binding of Sylsens B to the fungus cultivated in suspension / photodynamic effect with competing cations; format: cell-based, T. rubrum; details: Alcian Blue 160 μM versus Sylsens B 160 μM
Experimental: In the above experiments, deuteroporphyrin monomethylether (DP mme), an anionic porphyrin, was used as a control. […] The effect of calcium-ions was investigated by determining the photodynamic effect in the presence of 5 mM CaCl2 at pH 5.2. […] So, PDT may even be used to inactivate (kill) the growing fungus if measures are taken to prevent naturally present calcium from interfering with the treatment, in particular by using a chelating compound such as EDTA.

Row | Compound | effect of acidic pH on photodynamic activity (T. rubrum) | competition for binding to the fungus [1]
1 | C[n+]1ccc(-c2c3nc(c(-c4cc[n+](C)cc4)c4ccc([nH]4)c(-c4cc[n+](C)cc4)c4nc(c(-c5cc[n+](C)cc5)c5ccc2[nH]5)C=C4)C=C3)cc1.[Cl-].[Cl-].[Cl-].[Cl-] [meso-tetra(N-methyl-4-pyridyl)porphyrin tetrachloride, reference compound] | improved activity at acidic pH, albeit to a lesser extent than Sylsens B | 
2 | Alcian Blue [reference compound] |  | competed with Sylsens B
3 | deuteroporphyrin monomethylether [DP mme, reference compound] | failed to display the observed pH effect | 
